Experiments:
Type in all cases: biochemical
[1] = target: T1, soybean lipoxygenase (Glycine max, UniProt P08170); assay: In vitro screening of compounds as potential inhibitors of soybean lipoxygenase (spectrophotometric assay, 15-HPETE at 236 nm); conditions: pH 9.00, 10^-4 M arachidonic acid, 90 min, room temperature; for IC50: IC50 (concentration of 50% inhibition)
T1 sequence (P08170 1-839): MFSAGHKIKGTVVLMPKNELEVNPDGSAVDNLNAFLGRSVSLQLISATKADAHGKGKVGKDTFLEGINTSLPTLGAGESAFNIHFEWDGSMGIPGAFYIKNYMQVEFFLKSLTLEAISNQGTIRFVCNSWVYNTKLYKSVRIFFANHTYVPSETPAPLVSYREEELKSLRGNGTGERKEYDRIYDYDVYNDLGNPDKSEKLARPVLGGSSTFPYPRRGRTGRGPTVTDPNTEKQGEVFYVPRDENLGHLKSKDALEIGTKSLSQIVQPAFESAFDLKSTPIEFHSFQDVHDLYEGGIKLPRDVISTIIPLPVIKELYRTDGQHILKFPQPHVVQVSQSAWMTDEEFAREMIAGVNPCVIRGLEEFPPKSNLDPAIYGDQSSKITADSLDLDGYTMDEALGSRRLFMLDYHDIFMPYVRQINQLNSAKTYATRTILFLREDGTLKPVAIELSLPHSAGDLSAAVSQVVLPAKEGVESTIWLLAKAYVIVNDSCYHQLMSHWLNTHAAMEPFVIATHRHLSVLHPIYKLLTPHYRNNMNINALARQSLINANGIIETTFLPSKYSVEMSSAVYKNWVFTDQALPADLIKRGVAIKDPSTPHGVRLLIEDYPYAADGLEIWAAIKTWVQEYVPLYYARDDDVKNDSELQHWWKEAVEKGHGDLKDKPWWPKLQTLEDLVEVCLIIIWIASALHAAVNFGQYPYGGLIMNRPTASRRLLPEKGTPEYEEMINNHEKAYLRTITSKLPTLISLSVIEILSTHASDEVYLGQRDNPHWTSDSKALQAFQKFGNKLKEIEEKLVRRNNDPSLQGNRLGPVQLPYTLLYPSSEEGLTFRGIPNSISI
Procedure: A spectrophotometric method has been developed to determine the enzyme activity according to Corey E.J. et al. (J. Amer. Chem. Soc, 104, 1750-1752; 1982). In a final volume of 1.8 ml was mixed 0.2 M of aerated Borax buffer pH =9.00 with 500 units of soybean lipoxygenase. When inhibitors were tested, they were added in 0.6 ml at final concentrations ranging from 10^-3 M to 10^-8 M followed by a preincubation of 10 minutes at room temperature. The reaction was initiated by 10^-4 M arachidonic acid. Following incubation at room temperature for 90 minutes, 15-HPETE was determined by absorbance measurements at 236 nm.
This method was validated with known inhibitors of lipoxygenase. For each test substance a control was included with boiled lipoxygenase in order to take into account any absorption of the compound at the wavelength used.

[2] = target: xanthine oxidase (Bos taurus, UniProt P80457); assay: In vitro screening of compounds as potential inhibitors of xanthine oxidase; conditions: xanthine oxidase 0.01 units/ml, xanthine 5.10^-5 M, pH 7.4
Description: A unit of activity was defined as a change of 0.001 units/minute.

[3] = target: T2, cyclooxygenase (human platelets microsomes) (Homo sapiens, UniProt P23219); assay: Cycloxygenase inhibition in human platelets microsomes; conditions: cyclooxygenase (PGE2/TxB2), pH 7.9, 37° C.
T2 construct: human platelets microsomes; from tissue; host or cells: human platelet microsomes (microsomal powder)
Procedure: The enzymatic assay was carried out in silanized glassware according to the procedure of P. Ho, P. Walters and H, Sullivan (Prostaglandins 12, 951 1976). The reaction mixture containing 50 mM Tris HCl buffer, pH 7.9, 5mM 2-Tryptophan, […] methemoglobin, 0.2 mg of microsomal powder, and the test compound in a total volume of 0.2 ml was incubated at 37° C. for 5 minutes before the addition of 10 μl of 20 μM^14 C arachidonic acid (0.08 μCI). After 5 minute incubation, the reaction was terminated by the addition of 10 μl of 1M citric acid.
The mixture was extracted four times with 0.5 ml of anhydrous diethyl ether and dried with sodium sulphate. The residue was resuspended in approximately 40 μl of ether and submitted to chromatography on silica gel plates. The elution system consisted of diethyl ether/methanol/acetic acid (90:1:2). The RF values were measured relative to arachidonic acid. Thin layer chromatography plates (TLC) were exposed on LKB ultrafilm for about 24 hours. Partial identification of the spots were carried out by running standards (PGA2, PGB2, PGE2, PGF2c, PXB2, arachidonic acid) in the same solvent system. Quantitative results were obtained by scanning the developed film with a transmission densitometer (EC Apparatus 910) interfaced with a Hewlett Packard 3390A integrator.
The activity of the substances of the cyclooxygenase is quantified by the 2 spots corresponding to PGE2 and TxB2 (ratio PGE2 /TxB2).

T2 sequence (P23219 24-599): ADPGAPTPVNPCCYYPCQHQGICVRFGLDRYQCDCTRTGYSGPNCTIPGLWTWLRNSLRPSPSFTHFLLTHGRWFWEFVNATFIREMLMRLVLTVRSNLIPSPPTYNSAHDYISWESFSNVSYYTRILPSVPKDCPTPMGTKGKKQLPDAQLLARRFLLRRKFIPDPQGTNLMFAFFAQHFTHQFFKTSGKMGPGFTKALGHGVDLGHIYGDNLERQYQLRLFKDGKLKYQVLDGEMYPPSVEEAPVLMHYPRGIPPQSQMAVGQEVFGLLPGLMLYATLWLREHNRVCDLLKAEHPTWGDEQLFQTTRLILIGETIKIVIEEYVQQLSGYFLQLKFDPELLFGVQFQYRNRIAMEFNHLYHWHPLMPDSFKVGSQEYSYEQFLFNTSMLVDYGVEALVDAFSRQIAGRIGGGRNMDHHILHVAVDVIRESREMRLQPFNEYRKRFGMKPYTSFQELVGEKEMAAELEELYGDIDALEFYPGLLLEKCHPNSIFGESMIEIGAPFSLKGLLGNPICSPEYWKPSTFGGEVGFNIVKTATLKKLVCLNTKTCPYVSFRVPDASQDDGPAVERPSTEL
xanthine oxidase, sequence (P80457 whole entry): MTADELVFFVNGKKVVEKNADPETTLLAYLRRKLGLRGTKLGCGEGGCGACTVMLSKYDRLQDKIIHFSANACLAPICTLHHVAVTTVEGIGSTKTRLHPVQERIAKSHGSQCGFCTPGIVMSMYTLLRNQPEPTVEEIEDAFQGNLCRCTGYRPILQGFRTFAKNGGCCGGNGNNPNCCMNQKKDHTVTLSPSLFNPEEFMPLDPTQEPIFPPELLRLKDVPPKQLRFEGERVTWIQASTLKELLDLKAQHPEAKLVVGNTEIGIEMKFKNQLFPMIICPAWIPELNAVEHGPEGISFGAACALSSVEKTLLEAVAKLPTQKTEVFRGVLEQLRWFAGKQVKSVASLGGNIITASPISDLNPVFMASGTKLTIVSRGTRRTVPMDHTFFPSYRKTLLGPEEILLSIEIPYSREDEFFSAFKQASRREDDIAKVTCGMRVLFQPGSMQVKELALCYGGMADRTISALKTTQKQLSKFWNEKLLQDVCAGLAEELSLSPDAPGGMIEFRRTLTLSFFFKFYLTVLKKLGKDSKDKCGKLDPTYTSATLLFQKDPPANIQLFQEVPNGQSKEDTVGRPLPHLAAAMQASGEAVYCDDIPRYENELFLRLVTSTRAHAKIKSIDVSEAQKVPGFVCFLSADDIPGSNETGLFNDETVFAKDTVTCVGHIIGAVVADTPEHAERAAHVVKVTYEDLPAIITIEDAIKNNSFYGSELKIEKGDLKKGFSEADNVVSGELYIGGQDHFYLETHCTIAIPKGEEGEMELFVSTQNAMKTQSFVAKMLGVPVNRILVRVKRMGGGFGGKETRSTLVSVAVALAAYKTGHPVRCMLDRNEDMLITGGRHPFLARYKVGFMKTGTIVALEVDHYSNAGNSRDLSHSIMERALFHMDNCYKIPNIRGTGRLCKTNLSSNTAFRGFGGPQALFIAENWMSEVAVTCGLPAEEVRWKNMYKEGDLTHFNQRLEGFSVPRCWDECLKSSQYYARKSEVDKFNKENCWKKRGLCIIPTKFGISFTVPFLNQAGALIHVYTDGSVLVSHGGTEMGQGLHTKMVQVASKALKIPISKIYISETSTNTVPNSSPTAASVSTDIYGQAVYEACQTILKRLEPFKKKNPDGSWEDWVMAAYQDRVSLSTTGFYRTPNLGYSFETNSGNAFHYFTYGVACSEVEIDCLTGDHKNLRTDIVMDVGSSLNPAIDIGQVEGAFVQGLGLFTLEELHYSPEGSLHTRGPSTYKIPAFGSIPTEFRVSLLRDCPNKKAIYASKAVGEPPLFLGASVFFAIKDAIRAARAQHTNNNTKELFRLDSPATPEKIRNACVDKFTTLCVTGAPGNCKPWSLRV

| IC50 [1] [µM] | SMILES | other results |
| --- | --- | --- |
| – | N=C(N)Sc1ccc(O)c(O)c1 | IC50 (concentration of 50% inhibition) [1]: Not active |
| 1.61 | S=C(N=Nc1ccccc1)NNc1ccccc1 [Diphenylthiocarbazone, reference compound] | – |
| – | Nc1nc2ncc(CNc3ccc(C(=O)N[C@@H](CCC(=O)O)C(=O)O)cc3)nc2c(=O)[nH]1 [Folic acid, reference compound] | IC50 [2]: 0.676 µM |
| 93 | Oc1ccc(S)cc1O [drawing 6] | – |
| 104 | CCC(C)CSc1ccc(O)c(O)c1 (stereo not shown) [drawing 7] | – |
| 24.1 | CC1CCC(C(C)C)C(Sc2ccc(O)c(O)c2)C1 (stereo not shown) [drawing 8] | – |
| 27.6 | CCCCCCC(C)Sc1ccc(O)c(O)c1 (stereo not shown) [drawing 9] | – |
| 24.5 | CCCCCCC(C)Sc1ccc(O)c(O)c1 (stereo not shown) [drawing 10] | – |
| – | Oc1ccc(S)cc1O [drawing 20] | IC50 [3]: 9.23 µM |
| – | CCC(C)CSc1ccc(O)c(O)c1 (stereo not shown) [drawing 21] | IC50 [3]: 4.31 µM |
